This is an account of results in ChEMBL document CHEMBL4814021, “Synthesis, biological evaluation, and correlation of cytotoxicity versus redox potential of 1,4-naphthoquinone derivatives” (Bioorg Med Chem Lett, 2021).

One data set addresses T1, DNA topoisomerase 1 (Homo sapiens, UniProt P11387).
T1 sequence (P11387 whole entry): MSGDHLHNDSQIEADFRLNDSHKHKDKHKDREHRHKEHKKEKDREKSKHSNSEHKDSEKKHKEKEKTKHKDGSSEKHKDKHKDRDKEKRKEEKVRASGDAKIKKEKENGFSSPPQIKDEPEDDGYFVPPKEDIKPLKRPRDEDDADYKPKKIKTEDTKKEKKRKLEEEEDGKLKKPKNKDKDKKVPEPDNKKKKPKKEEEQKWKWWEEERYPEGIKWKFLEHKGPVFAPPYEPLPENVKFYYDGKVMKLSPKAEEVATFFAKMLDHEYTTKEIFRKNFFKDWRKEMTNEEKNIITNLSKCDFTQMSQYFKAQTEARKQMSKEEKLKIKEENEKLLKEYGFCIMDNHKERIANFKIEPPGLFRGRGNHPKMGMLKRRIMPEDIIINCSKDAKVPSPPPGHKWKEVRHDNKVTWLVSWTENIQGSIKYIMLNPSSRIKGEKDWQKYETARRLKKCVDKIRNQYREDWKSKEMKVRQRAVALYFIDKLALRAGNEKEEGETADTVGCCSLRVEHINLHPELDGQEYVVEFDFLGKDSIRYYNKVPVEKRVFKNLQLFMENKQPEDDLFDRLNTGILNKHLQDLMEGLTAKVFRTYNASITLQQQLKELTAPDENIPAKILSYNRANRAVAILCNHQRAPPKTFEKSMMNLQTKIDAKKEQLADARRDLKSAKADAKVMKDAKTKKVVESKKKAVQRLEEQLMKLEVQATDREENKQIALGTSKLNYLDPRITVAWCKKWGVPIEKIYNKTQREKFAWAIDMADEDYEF
Briefly: Inhibition of DNA topoisomerase 1 (unknown origin).

For another data set, the system named is KB. Briefly: Cytotoxicity against human KB cells. The format is functional, cell-based.
A short description of data set [1]: Redox potential of compound in phosphate buffer at pH 7.2 by cyclic voltammetry. The format is physicochemical.
The next data set deals with HeLa. Description: Cytotoxicity against human HeLa cells. The format is functional, cell-based.

Take `COc1cccc2c1C(=O)C=CC2=O`: the IC50 (as a rule, the concentration at which inhibition is half-maximal) at DNA topoisomerase 1 was found to be 48 µM; in the data set on KB it was 23.8 µM; in the data set with HeLa it was 21.7 µM. In data set [1], this molecule showed an Activity of -0.165 V.
Consider `CCOC1=CC(=O)c2ccccc2C1=O`, for which the IC50 came out at 16.9 µM with KB and 23.8 µM with HeLa. The same molecule had an Activity in data set [1] of -0.304 V.
The corresponding values for `CC(=O)Oc1cccc2c1C(=O)C=CC2=O` are 1.39 µM, 6.48 µM and -0.208 V.
On to `O=C1C=CC(=O)c2c(OCc3ccccc3)cccc21`, for which the 50% inhibitory concentration (IC50) is 8.48 µM with KB and 13.8 µM in the data set with HeLa. Besides, the Activity in data set [1] was -0.16 V.
The corresponding values for `O=C1C=CC(=O)c2cc(O)ccc21` are 13.3 µM, 7.06 µM and -0.192 V.
With `CS(=O)(=O)OC1=CC(=O)c2ccccc2C1=O`, the IC50 with KB is 7.18 µM; in the data set with HeLa, 7.61 µM. The same molecule showed an Activity in data set [1] of -0.146 V.
Take `O=C1C=CC(=O)c2cc(OCc3ccccc3)ccc21`: the values for the IC50 against DNA topoisomerase 1, in the data set on KB and in the data set with HeLa were 53.7 µM, 26.2 µM and 16.8 µM, respectively. Besides, the Activity in data set [1] is -0.207 V.
Take `COc1ccc2c(c1)C(=O)C=CC2=O`: the IC50 in the data set on KB is 33.9 µM; in the data set with HeLa, 22.7 µM. Besides, in data set [1], the Activity was -0.196 V.
The matching figures for `C/C=C/C(=O)OC1=CC(=O)c2ccccc2C1=O`: 64.2 µM, 37.9 µM and -0.413 V.
The corresponding values for `O=C(OC1=CC(=O)c2ccccc2C1=O)c1ccccc1` are 36.9 µM, 55 µM and -0.368 V.
In the case of `O=C(Oc1ccc2c(c1)C(=O)C=CC2=O)c1cccs1`, the results for the IC50 against DNA topoisomerase 1, in the data set with KB and in the data set on HeLa were more than 100 µM, 18.3 µM and 8.86 µM, respectively. Also, the Activity in data set [1] is -0.166 V.
On to `O=C1C=C(Oc2ccco2)C(=O)c2ccccc21`, for which the IC50 with KB came to 53.4 µM; with HeLa, 37 µM. The same molecule showed an Activity in data set [1] of -0.395 V.
For `O=C(Oc1cccc2c1C(=O)C=CC2=O)c1ccco1`, the IC50 in the data set with KB stood at 13.4 µM; with HeLa it was 12.5 µM. The Activity in data set [1] was -0.213 V.
With `Cc1ccc(S(=O)(=O)Oc2ccc3c(c2)C(=O)C=CC3=O)cc1`, the IC50 against DNA topoisomerase 1 is more than 100 µM; in the data set on KB, 16.4 µM; with HeLa it was 15.1 µM. In addition, the Activity in data set [1] is -0.154 V.
In the case of `Cc1ccc(S(=O)(=O)Oc2cccc3c2C(=O)C=CC3=O)cc1`, the results for the IC50 with KB and with HeLa were 10.7 µM and 9.47 µM, respectively. Moreover, the Activity in data set [1] was -0.151 V.
For `CS(=O)(=O)Oc1cccc2c1C(=O)C=CC2=O`, the IC50 is more than 100 µM on DNA topoisomerase 1, 27.1 µM in the data set on KB and 23.6 µM with HeLa. Moreover, the Activity in data set [1] was -0.158 V.
The corresponding values for `O=C(Oc1cccc2c1C(=O)C=CC2=O)c1cccs1` are more than 100 µM, 6.23 µM, 5.21 µM and -0.212 V.
In the case of `CCCOC1=CC(=O)c2ccccc2C1=O`, the IC50 came to 49.4 µM with KB and 51.6 µM in the data set on HeLa. Also, the Activity in data set [1] is -0.32 V.
The corresponding values for `CCOc1ccc2c(c1)C(=O)C=CC2=O` are 21.4 µM, 25.1 µM and -0.197 V.
Turning to `O=C(OC1=CC(=O)c2ccccc2C1=O)c1cccs1`, the half-inhibitory concentration (IC50) in the data set on KB worked out at 41.5 µM; in the data set with HeLa, 35.3 µM. The molecule also returned an Activity in data set [1] of -0.413 V.
The corresponding values for `CCCCOC1=CC(=O)c2ccccc2C1=O` are 27 µM, 35.3 µM and -0.305 V.
On to `Cc1ccc(S(=O)(=O)OC2=CC(=O)c3ccccc3C2=O)cc1`, for which the IC50 in the data set with KB turned out to be 18.8 µM; in the data set on HeLa it was 12.2 µM. Further, the Activity in data set [1] is -0.165 V.
Consider `CC(=O)Oc1ccc2c(c1)C(=O)C=CC2=O`, for which the results for the IC50 against DNA topoisomerase 1, in the data set on KB and with HeLa were more than 100 µM, 22.1 µM and 27.7 µM, respectively. Also, the Activity in data set [1] was -0.18 V.
On to `CC(=O)OC1=CC(=O)c2ccccc2C1=O`, for which the IC50 with KB amounted to 38.8 µM; in the data set on HeLa, 62.1 µM. The molecule further displayed an Activity in data set [1] of -0.416 V.
The matching figures for `O=C(Oc1ccc2c(c1)C(=O)C=CC2=O)c1ccccc1`: 12.1 µM, 19.2 µM and -0.174 V.
Take `O=C(Oc1ccc2c(c1)C(=O)C=CC2=O)c1ccco1`: the IC50 at DNA topoisomerase 1 was more than 100 µM; in the data set with KB, 15.8 µM; in the data set on HeLa, 17.2 µM. This molecule showed an Activity in data set [1] of -0.16 V.
With `C=CCOc1ccc2c(c1)C(=O)C=CC2=O`, the values for the IC50 in the data set on KB and with HeLa were 10.2 µM and 27.2 µM, respectively. Also, the Activity in data set [1] is -0.194 V.
For `O=C(Oc1cccc2c1C(=O)C=CC2=O)c1ccccc1`, the IC50 came to 90.6 µM at DNA topoisomerase 1, 6.47 µM in the data set on KB and 13 µM in the data set on HeLa. This molecule also gave an Activity in data set [1] of -0.208 V.
Take `CS(=O)(=O)Oc1ccc2c(c1)C(=O)C=CC2=O`: the IC50 was 11.6 µM in the data set with KB and 17.7 µM in the data set on HeLa. Further, in data set [1], the Activity was -0.15 V.
The matching figures for `COC1=CC(=O)c2ccccc2C1=O` [2-Methoxy-1,4-naphthoquinone]: 17.3 µM, 29.8 µM and -0.305 V.
Take `O=C1C=CC(=O)c2c(O)cccc21` [JUGLONE]: the 50% inhibitory concentration (IC50) against DNA topoisomerase 1 turned out to be 8.26 µM; in the data set with KB it was 6.55 µM; in the data set with HeLa it was 15.7 µM. The molecule also had an Activity in data set [1] of -0.204 V.
Regarding `O=C1C=C(O)C(=O)c2ccccc21` [LAWSONE], the results for the IC50 in the data set on KB and in the data set with HeLa were 105 µM and 71.3 µM, respectively. The same molecule showed an Activity in data set [1] of -0.431 V.
Turning to `CC1=CC(=O)c2c(O)cccc2C1=O` [PLUMBAGIN], the IC50 in the data set on KB came out at 9.83 µM; in the data set with HeLa, 10.2 µM. The same molecule gave an Activity in data set [1] of -0.346 V.
